Reference: PMC8536830 (Current Biology, 2021)
pEC50, pIC50: −log10 of the molar value. Where “and” joins values, the source holds several entries; their conditions need not be identical. Identical values can stand only once.

Columns and labels:
Assay type in all cases: cell-based, C. elegans
[1] = target: T1, LGC-56 (Caenorhabditis elegans, UniProt Q10052); test: Two-electrode voltage clamp, agonist-evoked currents in Xenopus oocytes expressing LGC-56; conditions: for pEC50: Xenopus oocytes, TEVC, current normalized to Imax, Hill equation with variable slope, read-out: EC50, agonist-evoked dose response, LGC-56; for Channel activation in ligand screen, LGC-56: ligands screened at 100 μM, oocytes clamped at −60 mV
Text: (§1) We aimed to deorphanize C. elegans LGICs without known ligands, focusing on 5 genes in the putative monoamine-gated group: lgc-50; lgc-51; lgc-52; lgc-54; and lgc-56 (previously named ggr-3). Using heterologous overexpression in Xenopus oocytes and two-electrode voltage clamp recordings, we measured channel activity evoked by application of 11 monoamines and other neurotransmitters.
(§2) Defolliculated Xenopus laevis oocytes were obtained from EcoCyte Bioscience (Dortmund, Germany) and maintained in ND96 (in mM: 96 NaCl, 1 MgCl2, 5 HEPES, 1.8 CaCl2, 2 KCl) solution at 16°C for 3-5 days.
(§3) 5'-capped cRNA was synthesized in vitro using the T3 mMessage mMachine transcription kit according to manufacturer’s protocol (Thermo Fischer Scientific, CA, USA). RNA was then purified using the GeneJET RNA purification kit (Thermo Fischer Scientific, CA, USA) prior to cRNA injection. Defolliculated Xenopus oocytes were placed individually into 96 well plates and injected with 50nL of 500ng/μL RNA using the Roboinject system (Multi Channel Systems GmbH, Reutlingen, Germany). When two constructs were injected the total RNA concentration remained 500ng/μL, with a 1:1 ratio of the components. Injected oocytes were incubated at 16°C in ND96 until the day of recording, typically between 3-5 days post injection.
(§4) Two-electrode voltage clamp recordings were carried out using the Robocyte2 recording system or a manual TEVC set up, using an OC-725D amplifier (Multi Channel Systems, Reutlingen, Germany) and paired with a custom-made recording chamber and agar bridges from reference and bath electrodes. Glass electrodes were pulled on a P-1000 Micropipette Puller (Sutter, Ca, USA) with a resistance ranging from 0.7-2 MΩ, pipettes, containing AgCl wires, were backfilled with a 3 M KCl solution for manual recordings and 1.5M KCl and 1 M acetic acid for Robocyte2 recordings. Oocytes were clamped at −60mV unless stated otherwise. Continuous recordings were taken during application of agonists and antagonists at 500 Hz. Data was recorded using WinWCP or RoboCyte2 control software, manual data was filtered at 10 Hz.
(§5) Dose response curves were calculated from the peak current during a 10 s agonist stimulation in ND96 solution, with a 60 s ND96 wash in between doses. Data was gathered over at least two occasions, using different batches of oocytes. Normalized dose response data was fitted to a nonlinear curve using a four parameters variable slope and the EC50 and Hill slope was calculated. All further recordings were carried out with the agonist at its EC50 concentration unless stated otherwise. Ion selectivity was determined using a voltage ramp protocol of 20mV/s ranging from −80mV to +60mV in the presence or absence of the primary agonist in three different solutions: ND96, NMDG (Na^+ free) and Na Gluconate (low Cl^-) solutions. Normalized ramp curves were fitted to a linear regression line and the x intercept was compared between solutions to calculate an average Erev from 4-5 oocytes. Antagonist dose response curves were calculated from the peak current during a 10 s agonist + antagonist stimulation in ND96 solution, with the agonist concentration remaining constant. Repeated agonist stimulus protocols were carried out by measuring the peak current during a 10 s agonist stimulation at three wash intervals, 10 s, 30 s and 60 s. Kinetic measurements were calculated from a 60 s agonist perfusion. […]

[2] = target: T2, LGC-54 (Caenorhabditis elegans, UniProt O17041); test: Two-electrode voltage clamp, agonist-evoked currents in Xenopus oocytes expressing LGC-54; conditions: for pEC50: Xenopus oocytes, TEVC, current normalized to Imax, Hill equation with variable slope, read-out: EC50, agonist-evoked dose response, LGC-54; for Channel activation in ligand screen, LGC-54: ligands screened at 100 μM, oocytes clamped at −60 mV
Text: as §1, §2, §3, §4
(§6) Dose response curves were calculated from the peak current during a 10 s agonist stimulation in ND96 solution, with a 60 s ND96 wash in between doses. Data was gathered over at least two occasions, using different batches of oocytes. Normalized dose response data was fitted to a nonlinear curve using a four parameters variable slope and the EC50 and Hill slope was calculated. All further recordings were carried out with the agonist at its EC50 concentration unless stated otherwise. Ion selectivity was determined using a voltage ramp protocol of 20mV/s ranging from −80mV to +60mV in the presence or absence of the primary agonist in three different solutions: ND96, NMDG (Na^+ free) and Na Gluconate (low Cl^-) solutions. Normalized ramp curves were fitted to a linear regression line and the x intercept was compared between solutions to calculate an average Erev from 4-5 oocytes. Antagonist dose response curves were calculated from the peak current during a 10 s agonist + antagonist stimulation in ND96 solution, with the agonist concentration remaining constant. Repeated agonist stimulus protocols were carried out by measuring the peak current during a 10 s agonist stimulation at three wash intervals, 10 s, 30 s and 60 s. Kinetic measurements were calculated from a 60 s agonist perfusion. Python scripts for TEVC analysis can be found at on GitHub at hiris25/TEVC-analysis-scripts and on Zenodo https://doi.org/10.5281/zenodo.5095181.
Dose response and antagonist response curves were generated using custom-built python scripts (key resources table), which combined data from multiple recordings and normalized data by calculating I/Imax for each oocyte.

[3] = target: LGC-52 (Caenorhabditis elegans, UniProt Q9NA62); test: Two-electrode voltage clamp, agonist-evoked currents in Xenopus oocytes expressing LGC-52; conditions: for pEC50: Xenopus oocytes, TEVC, current normalized to Imax, Hill equation with variable slope, read-out: EC50, agonist-evoked dose response, LGC-52; for Channel activation in ligand screen, LGC-52: ligands screened at 100 μM, oocytes clamped at −60 mV
Text: as §1, §2, §3, §4, §5

[4] = target: T3, LGC-51/52 (Caenorhabditis elegans, UniProt Q9NA62+X5LVB0); test: Two-electrode voltage clamp, agonist-evoked currents in Xenopus oocytes co-expressing LGC-51 and LGC-52; conditions: for Agonist-induced peak current of LGC-51/52 heteromer compared with LGC-52: 1 mM TYR or DA; for pEC50: Xenopus oocytes co-expressing LGC-51 and LGC-52, TEVC, Hill equation with variable slope, read-out: EC50, agonist-evoked dose response, LGC-51/52 heteromer
Experimental: as §2, §3, §4
as §5, with “Normalized ramp curves were fitted to a linear regression line and the x intercept was compared between solutions to calculate an average Erev from 4-5 oocytes.” left out, “Repeated agonist stimulus protocols were carried out by measuring the peak current during a 10 s agonist stimulation at three wash intervals, 10 s, 30 s and 60 s.” left out

[5] = target: T4, LGC-50 (Caenorhabditis elegans, UniProt P41849); test: Two-electrode voltage clamp, agonist-evoked currents in Xenopus oocytes expressing LGC-50; conditions: ligands screened at 100 μM, oocytes clamped at −60 mV
T4 construct: lgc-50 ORF F […]; expressed in transfected cells; host or cells: Xenopus laevis oocytes injected with cRNA (plasmid pJML002, KSM: lgc-50 cDNA)
T4 sequence (P41849 20-491): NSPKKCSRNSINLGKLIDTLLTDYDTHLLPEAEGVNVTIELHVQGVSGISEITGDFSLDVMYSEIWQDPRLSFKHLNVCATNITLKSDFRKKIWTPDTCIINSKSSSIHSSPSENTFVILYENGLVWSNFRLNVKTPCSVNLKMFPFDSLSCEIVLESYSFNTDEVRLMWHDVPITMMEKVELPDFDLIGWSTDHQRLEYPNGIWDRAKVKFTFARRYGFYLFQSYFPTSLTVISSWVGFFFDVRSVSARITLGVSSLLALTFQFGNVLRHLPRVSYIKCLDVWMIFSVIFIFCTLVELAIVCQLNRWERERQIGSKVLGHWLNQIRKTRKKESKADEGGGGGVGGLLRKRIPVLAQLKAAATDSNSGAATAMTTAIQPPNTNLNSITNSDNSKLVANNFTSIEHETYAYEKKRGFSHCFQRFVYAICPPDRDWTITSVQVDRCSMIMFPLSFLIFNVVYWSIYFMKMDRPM
Text: as §1, §2
5'-capped cRNA was synthesized in vitro using the T3 mMessage mMachine transcription kit according to manufacturer’s protocol (Thermo Fischer Scientific, CA, USA). RNA was then purified using the GeneJET RNA purification kit (Thermo Fischer Scientific, CA, USA) prior to cRNA injection. […]
(§7) Two-electrode voltage clamp recordings were carried out using the Robocyte2 recording system or a manual TEVC set up, using an OC-725D amplifier (Multi Channel Systems, Reutlingen, Germany) and paired with a custom-made recording chamber and agar bridges from reference and bath electrodes. […] Data was recorded using WinWCP or RoboCyte2 control software, manual data was filtered at 10 Hz.
Dose response curves were calculated from the peak current during a 10 s agonist stimulation in ND96 solution, with a 60 s ND96 wash in between doses. […] Normalized dose response data was fitted to a nonlinear curve using a four parameters variable slope and the EC50 and Hill slope was calculated. […] Ion selectivity was determined using a voltage ramp protocol of 20mV/s ranging from −80mV to +60mV in the presence or absence of the primary agonist in three different solutions: ND96, NMDG (Na^+ free) and Na Gluconate (low Cl^-) solutions. […] Antagonist dose response curves were calculated from the peak current during a 10 s agonist + antagonist stimulation in ND96 solution, with the agonist concentration remaining constant. […] Kinetic measurements were calculated from a 60 s agonist perfusion. […]

[6] = target: T1, LGC-56; test: Two-electrode voltage clamp, antagonist inhibitory dose response in Xenopus oocytes expressing LGC-56; conditions: for pIC50: Xenopus oocytes, TEVC, agonist constant at its EC50, Hill equation, three-parameter slope; for Block of LGC-56 currents by antagonist: agonist at EC50
Experimental: (§8) We also investigated the antagonist profiles of three potential antagonists: mecamylamine; spiperone; and picrotoxin. These antagonists target different binding sites and have different specificity for vertebrate receptors.
as §2, §3, §4, §6
(§9) Dose response and antagonist response curves were generated using custom-built python scripts (key resources table), which combined data from multiple recordings and normalized data by calculating I/Imax for each oocyte. Normalized mean, SD and n numbers where then imported into GraphPad where data was plotted and EC50 or IC50 values were calculated by fitting to the Hill equation using either three or four parameter slopes to obtain the highest degree of fit.

[7] = target: T2, LGC-54; test: Two-electrode voltage clamp, antagonist inhibitory dose response in Xenopus oocytes expressing LGC-54; conditions: for pIC50: Xenopus oocytes, TEVC, agonist constant at its EC50, Hill equation, three-parameter slope; for Block of LGC-54 currents by antagonist: agonist at EC50
Experimental: as §8, §2, §3, §4, §6, §9

[8] = target: T3, LGC-51/52; test: Two-electrode voltage clamp, antagonist inhibitory dose response in Xenopus oocytes expressing LGC-51/52
Experimental: as §8, §2
5'-capped cRNA was synthesized in vitro using the T3 mMessage mMachine transcription kit according to manufacturer’s protocol (Thermo Fischer Scientific, CA, USA). […]
as §7
Dose response curves were calculated from the peak current during a 10 s agonist stimulation in ND96 solution, with a 60 s ND96 wash in between doses. […] Normalized dose response data was fitted to a nonlinear curve using a four parameters variable slope and the EC50 and Hill slope was calculated. […] Kinetic measurements were calculated from a 60 s agonist perfusion. […]

T3 sequence (X5LVB0 entry or part of it): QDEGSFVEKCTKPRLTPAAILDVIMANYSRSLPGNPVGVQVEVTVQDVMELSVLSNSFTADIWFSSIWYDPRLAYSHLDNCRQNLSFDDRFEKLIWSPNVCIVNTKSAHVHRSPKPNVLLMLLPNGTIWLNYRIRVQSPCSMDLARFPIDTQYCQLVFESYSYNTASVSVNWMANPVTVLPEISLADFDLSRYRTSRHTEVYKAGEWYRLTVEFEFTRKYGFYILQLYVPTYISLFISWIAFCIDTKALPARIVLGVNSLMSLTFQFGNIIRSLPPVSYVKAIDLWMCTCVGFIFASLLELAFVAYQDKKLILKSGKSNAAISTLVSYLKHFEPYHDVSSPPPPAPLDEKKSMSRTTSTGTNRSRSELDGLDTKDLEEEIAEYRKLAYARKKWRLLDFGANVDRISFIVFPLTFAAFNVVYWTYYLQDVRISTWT
T3 sequence (Q9NA62 entry or part of it): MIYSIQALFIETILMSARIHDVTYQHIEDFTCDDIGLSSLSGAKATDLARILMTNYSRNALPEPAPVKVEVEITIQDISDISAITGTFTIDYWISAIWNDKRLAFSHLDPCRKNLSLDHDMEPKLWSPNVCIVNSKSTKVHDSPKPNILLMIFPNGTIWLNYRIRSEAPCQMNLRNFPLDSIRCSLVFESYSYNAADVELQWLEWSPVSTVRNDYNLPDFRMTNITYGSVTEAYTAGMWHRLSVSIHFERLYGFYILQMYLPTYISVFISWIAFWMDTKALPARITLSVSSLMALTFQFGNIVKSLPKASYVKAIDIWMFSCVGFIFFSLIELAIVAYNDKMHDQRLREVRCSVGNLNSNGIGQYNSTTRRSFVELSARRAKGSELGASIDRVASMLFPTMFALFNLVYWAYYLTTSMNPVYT
T1 sequence (Q10052 entry or part of it): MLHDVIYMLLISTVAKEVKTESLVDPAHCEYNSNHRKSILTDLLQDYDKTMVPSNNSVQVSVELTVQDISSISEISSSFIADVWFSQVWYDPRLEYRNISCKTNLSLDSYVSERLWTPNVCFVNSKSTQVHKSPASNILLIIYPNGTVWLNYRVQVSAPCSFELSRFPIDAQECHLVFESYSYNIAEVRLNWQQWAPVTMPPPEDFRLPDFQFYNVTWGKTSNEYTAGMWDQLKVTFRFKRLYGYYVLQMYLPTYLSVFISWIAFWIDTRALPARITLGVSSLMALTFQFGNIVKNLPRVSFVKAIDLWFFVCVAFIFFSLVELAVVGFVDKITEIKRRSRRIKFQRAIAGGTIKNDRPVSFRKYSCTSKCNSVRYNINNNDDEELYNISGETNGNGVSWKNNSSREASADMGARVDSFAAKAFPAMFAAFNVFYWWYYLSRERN
LGC-52, sequence (Q9NA62 entry or part of it): as the sequence (Q9NA62 entry or part of it) above
T2 sequence (O17041 entry or part of it): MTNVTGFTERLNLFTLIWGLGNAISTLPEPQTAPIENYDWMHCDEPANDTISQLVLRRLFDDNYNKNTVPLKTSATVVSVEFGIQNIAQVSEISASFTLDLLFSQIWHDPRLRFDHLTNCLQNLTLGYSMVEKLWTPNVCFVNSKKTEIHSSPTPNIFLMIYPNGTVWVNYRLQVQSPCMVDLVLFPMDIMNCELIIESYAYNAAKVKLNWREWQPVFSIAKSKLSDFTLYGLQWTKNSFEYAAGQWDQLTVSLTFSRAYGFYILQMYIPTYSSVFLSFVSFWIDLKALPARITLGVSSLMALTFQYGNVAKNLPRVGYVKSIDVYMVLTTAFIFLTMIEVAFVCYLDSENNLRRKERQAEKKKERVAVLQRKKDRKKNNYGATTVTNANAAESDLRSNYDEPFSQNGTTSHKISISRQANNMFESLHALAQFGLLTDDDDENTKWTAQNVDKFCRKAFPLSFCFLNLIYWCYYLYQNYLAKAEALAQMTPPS

NCCc1ccc(O)cc1 [tyramine]
pEC50 [1]: 4.15
Channel activation in ligand screen, LGC-56 [1]: activated
pEC50 [2]: 4.89
Channel activation in ligand screen, LGC-54 [2]: activated
pEC50 [3]: 4.27
Channel activation in ligand screen, LGC-52 [3]: activated
Agonist-induced peak current of LGC-51/52 heteromer compared with LGC-52 [4]: significantly higher
pEC50 [4]: 5.40

NCCc1c[nH]c2ccccc12 [tryptamine]
Channel gating in ligand screen, LGC-50 [5]: gated

NCC(O)c1ccc(O)cc1 (stereo not drawn) [octopamine]
Response of LGC-56 at very high concentration ([1]; 1 mM): small response

NCCc1ccc(O)c(O)c1 [dopamine]
pEC50 [1]: 3.19
Channel activation in ligand screen, LGC-56 [1]: activated
pEC50 [2]: 4.74
Channel activation in ligand screen, LGC-54 [2]: activated
pEC50 [3]: 6.29
Channel activation in ligand screen, LGC-52 [3]: activated
EC50 lower for dopamine than tyramine, LGC-52 ([3]; ratio of EC50 values): 100 fold
Agonist-induced peak current of LGC-51/52 heteromer compared with LGC-52 [4]: no significant effect
pEC50 [4]: 6.09

picrotoxin
pIC50 [6]: 4.23
Block of LGC-56 currents by antagonist [6]: large inhibition of currents
pIC50 [7]: 4.37
Block of LGC-54 currents by antagonist [7]: large inhibition of currents

CNC1(C)C2CCC(C2)C1(C)C (stereo not drawn) [mecamylamine]
pIC50 [6]: 6.00
Block of LGC-56 currents by antagonist [6]: partially blocked
pIC50 [7]: 3.94 and < 4.00
Block of LGC-54 currents by antagonist [7]: only a partial block

O=C(CCCN1CCC2(CC1)C(=O)NCN2c1ccccc1)c1ccc(F)cc1 [Spiperone, spiperone]
pIC50 ([8]; Xenopus oocytes, TEVC, agonist constant at its EC50, Hill equation, three-parameter slope): 3.77
Block of LGC-51/52 currents by antagonist ([8]; agonist at EC50): partial block
pIC50 [6]: 3.90
Block of LGC-56 currents by antagonist [6]: partial block
pIC50 [7]: 4.09
Block of LGC-54 currents by antagonist [7]: partial block
